Source: article PMC314469, “Protein Interaction Networks by Proteome Peptide Scanning” (PLoS Biology, 2004)

test system: Myo5 SH3 domain; experiment: SPOT analysis of cellulose-bound peptides (WISE), Myo5 SH3 domain (Dataset S4); type: binding, Saccharomyces cerevisiae; conditions: SPOT analysis of cellulose-bound 14-mer yeast proteome peptides, Myo5 SH3 domain; normalized value; mean where the peptide was synthesized more than once

Sequence | The normalized value in BLU units [BLU]
MSWCKERPECPLCR | 268.5
TLATLTEPKLPKSY | 18.0
HLDSFSPPFSPSTT | 120.7
QPAQFMPPQDPAAA | 133.5
ILFERILPILPVES | 339.9
FEESMNNPLPPLPP | 168.9
KLDPLGEPFDPNKH | 275.7
FANIKREPVHPEIR | 188.2
ELEDFAFPDTPTIV | 254.9
MAEFRRVPLPPMAE | 442.6
AADWYEVPKVPLSA | 275.4
NLYQRTTPAGPDPS | 114.4
KAIVWRLPKMPKIK | 515.4
LIWHKNKPTKPDNK | 300.3
KPKMLPIPSKPTLF | 1355.0
FFYRRDIPDVPITT | 138.0
VAPGLWFPNSPPPL | 4831.4
PLTTLPPPRLPSIQ | 2788.2
KFRQMFKPLAPNTR | 1217.4
KFFKHLYPAIPILD | 217.0
PFGTFTLPADPEYK | 171.6
RLSLLRSPKAPDAH | 442.3
SPNDHSDPSCPCNR | 76.1
FLSRYPVPDLPIYL | 1340.1
TPTPHPHPHTPHPH | 157.9

Sequence | The normalized value in BLU units [BLU]
VPGEHFAPMGPNGQ | 64.7
SANNYPFPQQPNGM | 79.6
QFQKLVPPTLPENV | 153.9
TKAKKEKPKPPKPI | 157.7
AAMNLETPSNPDSA | 84.9
TAWDMVPPYSPLSE | 126.6
INVEREAPMFPVPY | 148.9
MTQPKKNPMEPKTD | 147.2
NAQLRKTPLEPGLE | 175.9
TPTHHHIPHIPNQN | 147.9
EGTTKVDPIIPVPE | 180.1
KEVDLTRPSAPSEP | 132.2
DLDWRKIPFLPKEI | 250.1
DFVTLHVPATPETE | 190.5
SRVTRKRPREPKST | 829.0
HNAAKPIPHVPQAS | 62.3
RERPLEPPRKPMAS | 967.3
TIEARVHPEPPNKP | 374.9
QFSGLLEPSLPNNM | 84.4
NKIPKHLPADPIFS | 277.9
PLRERIIPILPANS | 175.1
VAWCHDSPKPPSDR | 30.6
KPLKFLRPTYPDLC | 149.2
FHDPKFIPNKPYRQ | 299.7

same assay, conditions: SPOT analysis of cellulose-bound peptides probed with Myo5 SH3 domain; normalized value

Sequence | The normalized value in BLU units (SPOT analysis, Myo5 SH3) [BLU]
HLARYIFPPNPVFH | 279.4
PPPPLPPPLFPSSS | 38483.6
AAYDHAEPVQPEDA | 146.1
KFLIHNEPIDPNDR | 121.7
SWLTMLPPMAPLLS | 504.9
TLEWLLTPYTPGDD | 163.5
LLLPLLLPPLPSVK | 6465.7
SPVNLLKPFNPTLP | 122.9
TFSIYSIPSKPGEC | 226.8
IPLPHQPPPLPIYS | 53588.9
DLSYYLRPIKPFNT | 160.7
SELTFIAPTQPVST | 110.5
NAIAMALPNEPYPA | 96.8
GPEFWISPDTPLKF | 87.4
TFRDMDLPQHPVIH | 188.2
HPHPHPHPHTPTHT | 238.0
FESTLPIPTYPREG | 122.0
FLYPYDDPNAPIDE | 55.4
SFRKLASPSNPNFF | 208.8
YLNSLSEPLVPLAL | 131.6
VLGVLNVPLPPQTR | 233.0
LEDALHVPTNPEIL | 191.1
QPAQLQEPQEPLST | 125.9
NASLLRDPSAPYAH | 133.8
SPFSLFIPTIPATT | 151.7
VEVIMHSPSDPEYA | 150.4
NFLKHYLPSSPGDI | 172.3
MFTYFQEPPFPDLL | 239.3
SPFTFLFPFLPTII | 366.0
KLNCLQIPHLPPSV | 349.8

same assay, conditions: SPOT analysis of membrane-bound peptides, Myo5 SH3 domain; normalized value (see methods)

Sequence | The normalized value in BLU units [BLU]
KKNDRPSPLKPIQH | 340.9
PTANKYAPVSPTVQ | 191.4
DSYSRSRPTRPLGY | 261.3
NRANKYDPKGPIYN | 205.0
TNSVKATPVPPTLA | 168.0
TSSLRKPPNGPSSV | 143.8
PQQNRPLPQLPNRN | 186.1
LTIFKRPPKQPGHQ | 702.9
LGLHKWLPDIPLFE | 167.8
GLDLKWEPSTPQRK | 164.4
DKFIKLIPMRPVLI | 252.9
IAVTRSIPRGPDKN | 157.9
LVGMRSFPLYPSGL | 385.7
YCPWKLCPLLPILY | 176.0
HICDKMNPASPQYF | 159.1
FQYTKGRPLAPKGA | 235.2

Sequence | The normalized value in BLU units [BLU]
SLIPKIEPAEPTYS | 85.4
HRLFKCTPGLPKLW | 266.0
RLLFRSLPPHPACL | 745.7
KVIRKGSPKSPAMV | 495.7
EKESRHYPIKPPSP | 179.9
IRTYKVVPLGPKAG | 100.2
LNLSKDAPVPPAPE | 161.0
AGPRKYIPRAPAQG | 194.7
YGSEKGSPAGPSAV | 50.3
RLVSKYRPNCPIIL | 286.2
AQKLKLLPEEPFQR | 400.9
LIWHKSKPVKPTNK | 353.6
KTGRKTFPFLPYQI | 466.0
NSFRKILPQEPEIW | 235.4
WFILKLFPHEPIEG | 1272.7

same assay, conditions: SPOT analysis of membrane-synthesized peptides probed with Myo5 SH3 domain; normalized value

Sequence | The normalized value in BLU units (SPOT analysis, Myo5 SH3) [BLU]
ELDIKQGPVRPFIV | 161.2
ETTTRETPLPPIPA | 178.3
KMSAKNTPKHPVDI | 307.2
VLFMKGTPEFPKCG | 212.8
ETGVRYGPEFPLCT | 96.2
LKDNRLLPSWPKRG | 518.0
EFPGKKCPRLPHRN | 367.5
SIIPRIFPSTPGTI | 368.8
LSRSKPLPLTPNSK | 323.9
AKVNKCPPDHPYIQ | 164.3
VEVDKKVPVLPMVA | 129.9
NDNEKKKPSSPTAA | 98.5
QWSKRIMPYIPGPV | 295.5
FEYSKYRPLTPSSE | 143.0
PFLIKFTPKFPQSI | 974.5
SDNSKSEPLPPVIT | 130.5
LNFKRLLPRDPSEK | 553.7

Sequence | The normalized value in BLU units (SPOT analysis, Myo5 SH3) [BLU]
AFVPKRKPSLPQLA | 1744.9
FQDYRCSPWCPSRS | 263.5
SVSEKTNPSSPSVS | 126.7
QLINRFMPHFPSSP | 518.2
NPMQKPVPFVPVLD | 420.2
KQRIRKIPGIPLMS | 621.8
ITAEKSAPTSPEVY | 94.2
TTKHKAPPPPPPTA | 1684.9
MLFMKGSPSEPKCG | 250.7
NDMAKPLPTPPTAE | 113.6
DFRGRAYPLSPHFN | 785.0
CNYSKIFPGIPISL | 49.2
DRKNRAPPQRPRFN | 2434.1
SILNRCVPKRPTID | 132.7
LFDEKVKPQIPQLR | 89.2
AFYYKYYPVEPNCN | 187.7
NNSTRPIPAIPMDL | 247.2
